Source: patent US10953027B2, “Active agents and methods of their use for the treatment of metabolic disorders and nonalcoholic fatty liver disease” (Flagship Pioneering Innovations V, Inc., priority 2018, dated 2021)

Assays:
[1] = tested on: Primary human subcutaneous adipocytes; assay: Glucose uptake in human subcutaneous adipocytes, insulin sensitive model; assay type: cell-based
Method: Primary human subcutaneous adipocytes (Zen Bio, Research Triangle Park, N.C.) were differentiated for two weeks prior to treatment. Cells were treated with indicated compounds diluted in (dimethyl-sulfoxide) DMSO in serum free medium for 24 hours in triplicate. After 24 hours, media was exchanged for assay buffer and the compounds were added again but in the presence of approximately 1 nM insulin. Glucose uptake was initiated with the addition of a cocktail containing 2-deoxyglucose and ^3H-2-deoxyglucose and allowed to incubate for 2 hours. Cells were washed, lysed and glucose uptake was measured as counts per well. As an assay control, 100 nM of insulin was used during the 2 hours of glucose uptake. […] Statistical changes in glucose uptake were determined by way ANOVA and compared to DMSO.

[2] = tested on: Primary human subcutaneous adipocytes; assay: Glucose uptake in human subcutaneous adipocytes, insulin resistant model; assay type: cell-based
Method: As described above, primary human subcutaneous adipocytes were differentiated for two weeks prior to treatment. To induce an insulin resistant state, cells were treated in serum free Dulbecco's Modified Eagle Medium (high glucose) and […] for 24 hours. Cells were simultaneously treated with compounds diluted in DMSO for 24 hours. As described above, after 24 hours, media was exchanged for assay buffer and the compounds were added again but in the presence of approximately 1 nM insulin. Cells were washed and lysed after 2 hours and glucose uptake was measured. […] Statistical changes in glucose uptake were determined by way ANOVA and compared to DMSO.

[3] = tested on: Caco-2 colonocytes; assay: Human Caco-2 barrier integrity assay (TEER); assay type: cell-based; conditions: 48 hours
Method: Caco-2 colonocytes were maintained at 37° C. and 5% CO2 in Dulbecco's Modified Eagle Medium (DMEM) and supplemented with 10% FBS, 1% NEAA, 1% penicillin-streptomycin. At 70-80% confluency, cells were trypsinized and seeded in 0.4 cm^2 transwell collagen I coated membranes with supplemented DMEM in both apical and basolateral compartments. Cells were seeded at a density of 200,000 cells per well and maintained for 10 days to form a polarized barrier with a TransEpithelial Electrial Resistance (TEER) reading above 1000Ω. On the first day of the assay, initial TEER readings were taken and cytokines were added to the basolateral media (50 ng/mL TNFα, 25 ng/mL IFNγ and 10 ng/mL IL-1β) to reduce barrier integrity while compounds diluted in (dimethylsulfoxide) DMSO were added to the apical media in triplicate. After 48 hours, TEER readings were taken again and viability was measured by CellTiter 96® AQueous One Solution Cell Proliferation Assay (Promega). The percent change in TEER over the 48 hours was determined and normalized to the 0.1% DMSO control (Table 6).

[4] = tested on: Human Peripheral Blood Monocytes (PBMCs); assay: Cytokine release from human PBMCs; assay type: cell-based; conditions: 100 μM, LPS, 24 hours
Method: Human donor blood (8 mL) was collected in sodium citrate CPT tubes and centrifuged at 1,600×g for 20 minutes at room temperature. […] PBMCs samples were centrifuged at 400×g for 10 minutes at 10° C. […] PBMCs were filtered through a 70 micron mesh to remove any cellular debris. […] PBMCs in a 96-well plate were rested for 30 minutes in a 37° C., 5% CO2 incubator, then subsequently treated with 10 μl of indicated compound. After 2 hours 10 μL of LPS (O111:B4) 1 mg/mL was added to test wells. After 24 hours of incubation at 37° C., 5% CO2, 100 μL of cell supernatant was collected and transferred to a 96-well plate (non-tissue treated, flat bottom). The plate was centrifuged at 350×g for 5 minutes at room temperature, and then the clear supernatant transferred to a new 96-well plate (non-tissue treated, flat bottom). The remaining cells were tested for viability using CellTiter-Glo® Luminescent Cell Viability Assay (Promega). The supernatant was analyzed for TNFα, IL-6 and IL-1β (kit LXSAHM-03; R&D Systems), using Luminex Immunoassay Technology (MAGPIX System). Cytokine levels of LPS treated DMSO control samples were set to 100%, and compound treated samples were expressed relative to this (Table 13).

[5] = tested on: Mouse 3T3-L1 cells; assay: Mouse adipocyte lipolysis assay; assay type: cell-based; conditions: Mus musculus, 3T3-L1; 100 μM, 24 hours; read-out: Lipolysis Free Fatty Acids % DMSO
Method: Once the cells became confluent, they were seeded into a tissue culture treated 96 well plate. […] After 14 days of differentiation, cells were treated with compounds of interest. After 24 hours post-treatment, the cell viability was assessed using CellTiter-Glo Luminescent Cell Viability Assay from Promega, and lipolysis was determined using Lipolysis Assay Kit from ZenBio.

[6] = tested on: Mouse myocyte; assay: Mouse myocyte lipolysis assay; assay type: cell-based; conditions: Mus musculus, read-out: Free glycerol % DMSO
Method: Cells were obtained from ATCC and cultured in Dulbecco's Modified Eagle's medium (DMEM) containing 20% fetal bovine serum and 1% penicillin/streptomycin at 37° C. in an incubator with 5% CO2. Once the cells became confluent, they were seeded into a tissue culture treated 96 well plate. The next day, the medium containing DMEM with 2% equine serum was used to start differentiation. Once cells were fully differentiated, they were treated with indicated compounds.

[7] = tested on: Male DIO mice; assay: In vivo evaluation for glucose disposal and lipidemia in DIO mice (Example 11); conditions: 0.045% in HFD
Method: The DIO mice were prepared by feeding male C57BL/6 mice a high fat diet (HFD, Research Diets D12492) from 6-14 weeks of age. DIO mice were housed individually and maintained on the HFD through the duration of study. A twelve-hour light cycle was maintained with room temperature maintained at 22-25° C. All of the mice were acclimated to the facility for 5 days prior to starting the study.
Following 5 days of facility acclimation, DIO mice were randomized into 8 groups of 10 based on body weight and blood glucose for assignment to treatment, as shown in Table 9:
All treatments were administered admixed in HFD (Research Diets, New Brunswick N.J.) and were provided ad libitum for 30 days. Drinking water for group 7 was supplemented with 1, 3 Butanediol at 3% concentration.
Body weight was recorded at baseline and twice weekly thereafter. Feed and water intakes were recorded each Monday, Wednesday, and Friday.
Blood samples (<3 μL) were obtained one hour post dose by tail clip at baseline and weekly thereafter for measurement of fed blood glucose by StatStrip. Additional anti-coagulated blood samples (100 μl, EDTA di-potassium salt) were obtained by tail clip one hour post-dose at baseline, day 14 and day 30. Anti-coagulated samples were quick frozen and stored on dry ice.
Animals were subjected to a 16 hour fast for performance of an oral glucose tolerance test (OGTT) on day 28. Blood samples were obtained via tail clip just prior to (8 am) and 15, 30, 60, 90, and 120 minutes post-glucose load (2.0 g/kg, PO) for assay of whole blood glucose (StatStrip). Feed was returned following last sample.
Animals were terminated on day 30-31 using CO2 inhalation and induction of pneumothorax. Terminal blood samples were obtained by cardiac puncture. Whole blood was processed to serum and analyzed for serum cholesterol, triglycerides, high density lipoprotein (HDL), low density lipoprotein (LDL) and non-esterified fatty acids (NEFA) using AU480 clinical analyzer.
Organ weights (liver, spleen, subcutaneous fat, inguinal fat, abdominal fat, and epididymal fat) were recorded. Sections of each fat were frozen or fixed in 4% paraformaldehyde/PBS, pH 6.9; Fat samples were placed on dry ice. Fixed liver samples (4% paraformaldehyde) were sent to Premier Laboratories for H&E staining and scoring for steatosis, inflammation and fibrosis. Spleen samples were prepared in ice cold 5% bovine serum albumin (BSA) in PBS or 4% paraformaldehyde. Sections of brain, heart, lung, and small and large intestine were fixed in 10% formalin.
All data are represented as group mean±SEM. Data were analyzed using JMP (SAS software). All normalizations were calculated using terminal body weight.
Baseline differences among groups were identified using Tukey-Kramer Hsd<0.05. Treatment effects compared to control were determined using Oneway ANOVA (*, p<0.05) followed by Dunnett's test where appropriate.

[8] = tested on: naïve CD4+ T cells; assay: Human regulatory T cell differentiation assay; assay type: cell-based; conditions: 6 days
Method: Peripheral blood mononuclear cells (PBMCs) from whole blood donated by health volunteers were separated by Ficoll-Paque gradient centrifugation and naïve CD4^+ T cells were subsequently isolated using magnet beads (EasySep™ Human Naïve CD4^+ T Cell Isolation Kit, Cambridge, Mass.). For regulatory T cell (Treg) differentiation assay, naïve CD4^+ T cells were cultured (1-10×10^4 cells) in CTS OpTmizer medium for 6 days and stimulated with 5 ng/ml TGF-β, 100 U/ml IL-2, and ImmunoCult™ Human […] T Cell Activator; Stemcell #10990) with/without our Compounds. Cell viability was determined using a viability dye (eBioscience Fixable Viability Dye eFluor 780: ThermoFisher 65-0865-14) at 1:500 dilution. The cells were gated for Treg, defined as Live, CD11c^−, CD14^−, CD19^−, CD8^−, CD4^+, CD3^+, CD25^+, FOXP3^+. Percent (%) Tregs were calculated as percentage of CD4^+, CD25^+, FOXP3^+ cells over total CD4^+ T cells. Statistical analysis was performed with GraphPad Prism Software Using One-Way ANOVA.

CCCC(=O)O [Butyrate, butyrate]
Insulin Sensitive % DMSO (glucose uptake) ([1]; 3 mM): − (<50%: −) | Insulin Resistant % DMSO (glucose uptake) ([2]; 3 mM): + (110%> ≤140%: +) | % Change in TEER from DMSO ([3]; 1 mM + cytokines): − (≤125%: −) | % Change in TEER from DMSO ([3]; 3 mM + cytokines): − (≤125%: −) | % Change in TEER from DMSO ([3]; 5 mM + cytokines): ++ (150%≥ ≤200%: ++) | IL6 % DMSO control [4]: + ((+) 50%≥ <90% DMSO) | ILβ % DMSO control [4]: − ((−) ≥110% DMSO;) | TNFα % of DMSO control [4]: ++ ((++) <50% DMSO)

CCC(=O)O [Propionate, propionate]
Insulin Sensitive % DMSO (glucose uptake) ([1]; 3 mM): = (50%> ≤110%: =) | Insulin Resistant % DMSO (glucose uptake) ([2]; 3 mM): = (50%> ≤110%: =) | % Change in TEER from DMSO ([3]; 1 mM + cytokines): + (125%> ≤150%: +) | % Change in TEER from DMSO ([3]; 3 mM + cytokines): ++ (150%≥ ≤200%: ++) | IL6 % DMSO control [4]: + ((+) 50%≥ <90% DMSO) | ILβ % DMSO control [4]: + ((+) 50%≥ <90% DMSO) | TNFα % of DMSO control [4]: + ((+) 50%≥ <90% DMSO)

CN(CCOc1ccc(CC2SC(=O)NC2=O)cc1)c1ccccn1 (centres unmarked) [Rosiglitazone, rosiglitazone, reference compound]
activity at 100 µM [5]: ≤ 50% | activity at 10 µM ([6]; 10 μM): 50 to 70% | activity at 100 µM ([6]; 100 μM): 50 to 70% | Abdominal fat (% BW) [7]: *1.6 ± 0.1 % BW | Blood glucose (fed) change compared to baseline [7]: −22.8±3.7% | Epididymal fat (% BW) [7]: 4.1 ± 0.2 % BW | Inguinal fat (% BW) [7]: 0.78 ± 0.05 % BW | Subcutaneous fat (% BW) [7]: *7.6 ± 0.5 % BW | Fasting blood glucose levels (time 0 from OGTT) ([7]; 28 days, 16 hour fast): 91.3 ± 2.5 mg/dL | change in body weight from baseline ([7]; 30 days): 22.8±1.9% | Cholesterol ([7]; terminal (fed) serum): *121.5 ± 7.3 mg/dL | HDL ([7]; terminal (fed) serum): *60.5 ± 3.0 mg/dL | LDL ([7]; terminal (fed) serum): 8.0 ± 0.5 mg/dL | NEFA ([7]; terminal (fed) serum): *0.71 ± 0.04 mEq/L | Triglycerides ([7]; terminal (fed) serum): 91.3 ± 4.8 mg/dL | Cell viability % DMSO ([8]; 10 uM): = (90%≥ ≤110%: =) | Cell viability % DMSO ([8]; 100 uM): − (<90%: −) | activity at 10 µM ([8]; Homo sapiens, CD4+ T, 144 h, 10 uM, read-out: Treg induction % DMSO): 90 to 110% | activity at 100 µM ([8]; Homo sapiens, CD4+ T, 144 h, 100 uM, read-out: Treg induction % DMSO): 90 to 110%

O=C[C@@H](O)[C@H](O)[C@H](O)CO [arabinose]
Insulin Sensitive % DMSO (glucose uptake) ([1]; 0.5 mM): = (50%> ≤110%: =) | Insulin Sensitive % DMSO (glucose uptake) ([1]; 1 mM): ++ (140%≥ ≤200%: ++) | Insulin Resistant % DMSO (glucose uptake) ([2]; 0.5 mM): = (50%> ≤110%: =) | Insulin Resistant % DMSO (glucose uptake) ([2]; 1 mM): = (50%> ≤110%: =) | IL6 % DMSO control [4]: + ((+) 50%≥ <90% DMSO) | ILβ % DMSO control [4]: = ((=) 90%≥ <110% DMSO) | TNFα % of DMSO control [4]: + ((+) 50%≥ <90% DMSO)
